“And” between values parts separate entries of the source, which are not always exact repeats. Identical values can stand only once.
Columns and labels:
[1] = tested on: human epithelial squamous cell carcinoma cells (A431); experiment: PpIX fluorescence accumulation; conditions: for PpIX accumulation: A431 cells, hydrochloride;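 as to all read-outs here: PpIX fluorescence accumulating inside A431 cells, read under dim light to limit photobleaching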
Method: (§1) Briefly, cells were seeded at 2×10^4 cells per well in a 96 well plate and left to adhere overnight. Test solutions were prepared on the day of the assay and applied to the cells. The level of PpIX produced was monitored using a multi-well fluorescent plate reader with a 400 (±30) nm excitation filter and a 645 (±40) nm emission filter, with the level of fluorescence produced being directly proportional to the level of PpIX present. Readings were taken hourly for 6 hours and were conducted under low light conditions to reduce photobleaching of PpIX.
(§2) These were tested alongside equimolar concentrations of ALA, ALA and CP94 (3), MAL, and MAL and CP94 (3), with all test compounds being investigated in human dermal fibroblasts (84BR; FIGS. 2A and 2B), human epithelial squamous cell carcinoma cells (A431; FIGS. 3A and 3B) and human glioblastoma cells (U87MG; FIGS. 4A and 4B).

[2] = tested on: human epithelial squamous cell carcinoma cells (A431); experiment: PDT efficacy: cell viability (NRU assay) following irradiation; assay type: cell-based
Method: (§3) To assess the effect of AP2-18 (8) on PpIX-induced PDT efficacy, the same three cell types were exposed to equimolar concentrations of ALA, ALA and CP94 (3), MAL, MAL and CP94 (3), and AP2-18 (8) (as described previously) and incubated in the dark for 4 hours. The level of PpIX accumulation was then quantified as before, prior to irradiation with red light (37 J/cm^2; 635±2 nm; Aktilite, Galderma, UK).

[3] = tested on: human epithelial squamous cell carcinoma cells (A431); experiment: PpIX fluorescence after varying incubation periods (2, 3 or 4 hours); conditions: for PpIX fluorescence: A431 cells, individual replicates, hydrochloride
Method: as §1

[4] = tested on: human dermal fibroblasts (84BR); experiment: PpIX fluorescence accumulation; conditions: 250-1000 μM, up to 6 hours
Method: as §1, §2

[5] = tested on: human glioblastoma cells (U87MG); experiment: PpIX fluorescence accumulation; assay type: cell-based; conditions: for PpIX accumulation (fluorescence): hydrochloride
Method: as §1, §2

[6] = tested on: human glioblastoma cells (U87MG); experiment: PDT efficacy: cell viability (NRU assay) following irradiation; assay type: cell-based
Method: as §3

[7] = tested on: human dermal fibroblasts (84BR); experiment: as above; conditions: 84BR; lowest concentration employed (250 μM)
Method: as §3

[8] = tested on: human epithelial squamous cell carcinoma cells (A431); experiment: Cell viability (NRU assay) after irradiation with varying incubation periods (2, 3 or 4 hours); assay type: cell-based; conditions: for cell viability: A431 cells, then red light 37 J/cm^2, NRU assay, individual replicates, hydrochloride
Method: Neutral red is an inert dye actively taken up and stored by viable (living) cells, an action which is unable to be performed by non-viable cells, therefore the level of neutral red taken up is directly proportional to the number of viable cells present following a given exposure. Following uptake of the dye, cells are lysed and the level of neutral red quantified using a plate reader.
After the relevant incubation period, the cells were irradiated with red light (37 J/cm^2; 635±2 nm; Aktilite, Galderma, UK).

**Q.** What does the source list for `CCc1c(O)c(O)cc[n+]1CCOC(=O)CCC(=O)CN.Cl.[Cl-]` [AP2-18, 1-(2-(5-amino-4-oxopentanoyloxy)ethyl)-2-ethyl-3,4-dihydroxypyridinium chloride hydrochloride]?
**A.** PpIX accumulation vs ALA or MAL alone or with CP94 ([1]; A431, 250-1000 μM, up to 6 hours): significantly increase PpIX accumulation; PpIX accumulation ([1]; 500 μM (each component), exposure time 1 hour): 21.33 and 33.67 and 22.67 and 28.67 and 33 and 32 and 29; PpIX accumulation ([1]; 1000 μM (each component), exposure time 1 hour): 41.33 and 38.33 and 49.33 and 33.67 and 34.67 and 36.67 and 49 and 51; PpIX accumulation ([1]; 1000 μM (each component), exposure time 2 hours): 58.33 and 69.33 and 58.67 and 63.67 and 78.67 and 97.67 and 93.67; reduction in cell viability following PDT [2]: significant reductions in cell viability; PpIX vs highest doses of ALA or MAL (1000 μM) at 4 hours ([3]; A431, 250 μM, 2 hours incubation): produced more PpIX; PpIX levels vs other treatment parameters ([3]; A431, 1000 μM, four hours incubation): statistically significant higher PpIX levels than any other treatment parameters investigated; PpIX fluorescence ([3]; 500 μM (each drug), incubation time 2 hours): 35.33 and 33.33 and 57.67 and 49.67 and 55.67 and 58.67 (2×) and 69.67 and 58.33; PpIX fluorescence ([3]; 500 μM (each drug), incubation time 3 hours): 59.33 and 67.33 and 62.33 and 114.33 (2×) and 109.33 and 119.67 and 139.67 and 118.67; PpIX fluorescence ([3]; 500 μM (each drug), incubation time 4 hours): 71.67 and 82.67 and 73.67 and 137.67 and 136.67 and 140.67 and 151.67 and 177.67 and 146.67; PpIX fluorescence ([3]; 1000 μM (each drug), incubation time 2 hours): 58.33 and 69.33 and 58.67 (2×) and 63.67 and 78.67 and 97.67 and 93.67 (2×); PpIX fluorescence ([3]; 1000 μM (each drug), incubation time 3 hours): 96.33 and 100.33 and 116.33 and 117.33 and 114.33 and 118.33 and 144.67 and 180.67 and 182.67; PpIX fluorescence ([3]; 1000 μM (each drug), incubation time 4 hours): 113.67 and 119.67 and 140.67 and 145.67 and 139.67 and 141.67 and 177.67 and 221.67 and 225.67; PpIX accumulation vs ALA or MAL alone or with CP94 [4]: significantly increase PpIX accumulation; PpIX accumulation (fluorescence) ([5]; 250 μM (combinations: 250 μM each), exposure time 2 hours): 114.3 and 128.3 and 146.3 and 125.67 and 126.67 and 129.67 and 130.67 and 128.67; PpIX accumulation (fluorescence) ([5]; 250 μM (combinations: 250 μM each), exposure time 3 hours): 172 and 199 and 221 and 195 and 196 and 189.33 and 195.33 and 184.33; PpIX accumulation (fluorescence) ([5]; 500 μM (combinations: 500 μM each), exposure time 3 hours): 312 and 308 and 267 and 279 and 251.33 and 271.33 and 273.33; PpIX accumulation (fluorescence) ([5]; 1000 μM (combinations: 1000 μM each), exposure time 4 hours): 519 and 469 and 361 and 447 and 468 and 478 and 456 and 499; PpIX accumulation vs ALA or MAL alone or with CP94 ([5]; 250-1000 μM, up to 6 hours): significantly increase PpIX accumulation; PpIX-induced PDT cell kill [6]: highly effective PpIX-induced PDT cell kill; reducing cell viability following PDT vs other treatment parameters [7]: significantly better; cell kill on irradiation compared with ALA or MAL ([8]; A431, incubation 2, 3 or 4 hours, greatest cytotoxicity at 4 hours): statistically significant increases in cell kill; cell viability ([8]; 250 μM (each drug), incubation time 2 hours, 250 µM): 97.7 and 86.79 and 91.73 and 133.2414 and 62.66 and 106.5847 and 64.29 and 96.8 and 131.2186; cell viability ([8]; 250 μM (each drug), incubation time 3 hours, 250 µM): 86.93 and 101.2448 and 79.7 and 62.46 and 60.17 and 62.3481 and 33.56 and 37.89 and 49.02 and 32.65 and 47.7341 and 52.75; cell viability ([8]; 250 μM (each drug), incubation time 4 hours, 250 µM): 7.088 and 6.582 and 5.929 and 7.34 and 6.99 and 6.52 and 32.03 and 32.79 and 31.11; cell viability ([8]; 500 μM (each drug), incubation time 2 hours, 500 µM): 12.86 and 12.74 and 16.04 and 53.68 and 42.01 and 55.47 and 60.64 and 70.31 and 124.24; cell viability ([8]; 500 μM (each drug), incubation time 3 hours, 500 µM): 102.5418 and 125.9215 and 67.1 and 33.04 and 31.45 and 38.59 and 68.88 and 42.19 and 58.38 and 49.61 and 46.3628 and 69.56; cell viability ([8]; 500 μM (each drug), incubation time 4 hours, 500 µM): 6.023 and 6.336 and 6.646 and 7.159 and 7.63 and 6.693 and 42.88 and 32.5727 and 25.11; cell viability ([8]; 1000 μM (each drug), incubation time 2 hours, 1000 µM): 96.31 and 83.65 and 82.62 and 98.19 and 107.1891 and 53.91 and 80.39 and 46.21 and 97.83; cell viability ([8]; 1000 μM (each drug), incubation time 3 hours, 1000 µM): 92.47 and 93.28 and 87.85 and 39.73 and 38.74 and 37.68 and 45.15 and 47.25 and 41.05 and 50.59 and 59.84 and 82.37; cell viability ([8]; 1000 μM (each drug), incubation time 4 hours, 1000 µM): 6.315 and 6.002 and 5.891 and 7.607 and 8.758 and 7.362 and 38.09 and 34.2 and 25.3

From patent US9346758B2, “Pyridinone compounds for use in photodynamic therapy” (UNIVERSITY OF EXETER, priority 2012, dated 2016)
